Compound: CCn1c(-c2nonc2N)nc2c(C#CC(C)(C)O)ncc(OC[C@H]3CCCNC3)c21 + C[C@@H](Oc1cc(-c2cnn(C3CCNCC3)c2)cnc1N)c1c(Cl)ccc(F)c1Cl [Crizotinib] (partner 1 µM)
Experiment: relative viability (nuclei count vs DMSO), 5 days (fraction); higher = more cells survive
Conditions: first compound 0.01 µM
How it was run: (§1)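 Medians of duplicate plates are given as relative viability. That measure is the nuclei count in treated wells divided by the count in vehicle wells. Counts were taken on 4× images of lung cancer cell lines in 1536-well plates, 5 days after pin-tool dosing the day after seeding with one drug alone or a fixed anchor-drug dose plus five library-drug doses (not always all listed) in √10 steps.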

Row | Cell Line | relative viability
1 | HCC-15 | 0.764
2 | PC-14 | 0.925
3 | EKVX | 0.845
4 | LC-2-ad | 0.452
5 | NCI-H1975 | 0.945
6 | RERF-LC-KJ | 0.808
7 | NCI-H650 | 0.561
8 | PC-3 [JPC-3] | 0.944

Same assay, conditions: first compound 0.03162 µM

Row | Cell Line | relative viability
9 | NCI-H1651 | 0.829
10 | EPLC-272H | 1.09
11 | NCI-H1792 | 0.948
12 | NCI-H1355 | 0.943
13 | NCI-H3122 | 0.312
14 | NCI-H1437 | 0.821
15 | NCI-H1755 | 0.866
16 | NCI-H2023 | 0.67
17 | HCC-15 | 0.868
18 | PC-14 | 0.863
19 | EKVX | 0.929
20 | LC-2-ad | 0.483
21 | NCI-H1975 | 1.08
22 | RERF-LC-KJ | 0.788
23 | NCI-H650 | 0.697
24 | PC-3 [JPC-3] | 0.988

Same assay, conditions: first compound 0.1 µM

Row | Cell Line | relative viability
25 | NCI-H1651 | 0.877
26 | EPLC-272H | 0.892
27 | NCI-H1792 | 0.95
28 | NCI-H1355 | 1.03
29 | NCI-H3122 | 0.264
30 | NCI-H1437 | 0.899
31 | NCI-H1755 | 0.84
32 | NCI-H2023 | 0.557
33 | HCC-15 | 0.758
34 | PC-14 | 0.944
35 | EKVX | 1.03
36 | LC-2-ad | 0.448
37 | NCI-H1975 | 0.893
38 | RERF-LC-KJ | 0.815
39 | NCI-H650 | 0.683
40 | PC-3 [JPC-3] | 1.04

Same assay, conditions: first compound 0.3162 µM

Row | Cell Line | relative viability
41 | NCI-H1651 | 0.853
42 | EPLC-272H | 0.802
43 | NCI-H1792 | 0.891
44 | NCI-H1355 | 1.02
45 | NCI-H3122 | 0.283
46 | NCI-H1437 | 0.936
47 | NCI-H1755 | 0.892
48 | NCI-H2023 | 0.583
49 | HCC-15 | 0.748
50 | PC-14 | 0.94
51 | EKVX | 0.667
52 | LC-2-ad | 0.493
53 | NCI-H1975 | 1.03
54 | RERF-LC-KJ | 0.829
55 | NCI-H650 | 0.68
56 | PC-3 [JPC-3] | 0.909

Same assay, conditions: first compound 1 µM

Row | Cell Line | relative viability
57 | NCI-H1651 | 0.893
58 | EPLC-272H | 0.904
59 | NCI-H1792 | 0.78
60 | NCI-H1355 | 0.799
61 | NCI-H3122 | 0.276
62 | NCI-H1437 | 0.927
63 | NCI-H1755 | 0.849
64 | NCI-H2023 | 0.549
65 | HCC-15 | 0.726
66 | PC-14 | 0.839
67 | EKVX | 0.795
68 | LC-2-ad | 0.479
69 | NCI-H1975 | 0.98
70 | RERF-LC-KJ | 0.837
71 | NCI-H650 | 0.666
72 | PC-3 [JPC-3] | 0.993

Compound: CCOC1=CC=CC=C1N=NC2=C(NN(C2=O)C3=NC(=CS3)C4=CC=CC=C4)C [BAM7] + CC(=O)Nc1cccc(-n2c(=O)n(C3CC3)c(=O)c3c(Nc4ccc(I)cc4F)n(C)c(=O)c(C)c32)c1 [Trametinib] (partner 0.02 µM)
Experiment: as above
Conditions: first compound 0.5 µM
How it was run: as §1

Row | Cell Line | relative viability
73 | NCI-H1651 | 0.859
74 | EPLC-272H | 0.292
75 | NCI-H1792 | 0.46
76 | NCI-H1355 | 0.399
77 | NCI-H3122 | 0.24
78 | NCI-H1437 | 0.415
79 | NCI-H1755 | 0.749
80 | NCI-H2023 | 0.525
81 | HCC-15 | 0.341
82 | PC-14 | 0.829
83 | EKVX | 0.474
84 | LC-2-ad | 0.884
85 | NCI-H1975 | 0.329
86 | RERF-LC-KJ | 0.767
87 | NCI-H650 | 1.02
88 | PC-3 [JPC-3] | 0.592

Same assay, conditions: first compound 5 µM

Row | Cell Line | relative viability
89 | NCI-H1651 | 0.842
90 | EPLC-272H | 0.31
91 | NCI-H1792 | 0.462
92 | NCI-H1355 | 0.386
93 | NCI-H3122 | 0.232
94 | NCI-H1437 | 0.396
95 | NCI-H1755 | 0.805
96 | NCI-H2023 | 0.437
97 | HCC-15 | 0.374
98 | PC-14 | 0.745
99 | EKVX | 0.301
100 | LC-2-ad | 0.91
101 | NCI-H1975 | 0.366
102 | RERF-LC-KJ | 0.708
103 | NCI-H650 | 0.98
104 | PC-3 [JPC-3] | 0.722

Same assay, conditions: first compound 15.81 µM

Row | Cell Line | relative viability
105 | NCI-H1651 | 0.835
106 | EPLC-272H | 0.252
107 | NCI-H1792 | 0.401
108 | NCI-H1355 | 0.317
109 | NCI-H3122 | 0.283
110 | NCI-H1437 | 0.394
111 | NCI-H1755 | 0.705
112 | NCI-H2023 | 0.398
113 | HCC-15 | 0.331
114 | PC-14 | 0.542
115 | EKVX | 0.294
116 | LC-2-ad | 0.87
117 | NCI-H1975 | 0.332
118 | RERF-LC-KJ | 0.526
119 | NCI-H650 | 1.04
120 | PC-3 [JPC-3] | 0.637

Same assay, conditions: first compound 50 µM

Row | Cell Line | relative viability
121 | NCI-H1651 | 0.862
122 | EPLC-272H | 0.28
123 | NCI-H1792 | 0.362
124 | NCI-H1355 | 0.457
125 | NCI-H3122 | 0.198
126 | NCI-H1437 | 0.414
127 | NCI-H1755 | 0.779
128 | NCI-H2023 | 0.49
129 | HCC-15 | 0.384
130 | PC-14 | 0.697
131 | EKVX | 0.308
132 | LC-2-ad | 0.847
133 | NCI-H1975 | 0.415
134 | RERF-LC-KJ | 0.642
135 | NCI-H650 | 1.28
136 | PC-3 [JPC-3] | 0.617

From the supplement of paper PMC10307832
